# In patent publication US9057727B2, “Screening methods using G-protein coupled receptors and related compositions” (The General Hospital Corporation, priority 2007, dated 2015):
# Ends that are not written are not given here. Peptide text beside a SMILES is read from it.
# Target: T1, human PTHR, G protein-uncoupled conformation (R^0) (Homo sapiens, UniProt Q03431)
# T1 construct: expressed in transfected cells; host or cells: COS-7, transient (Fugene-6)
# T1 sequence (Q03431 27-593): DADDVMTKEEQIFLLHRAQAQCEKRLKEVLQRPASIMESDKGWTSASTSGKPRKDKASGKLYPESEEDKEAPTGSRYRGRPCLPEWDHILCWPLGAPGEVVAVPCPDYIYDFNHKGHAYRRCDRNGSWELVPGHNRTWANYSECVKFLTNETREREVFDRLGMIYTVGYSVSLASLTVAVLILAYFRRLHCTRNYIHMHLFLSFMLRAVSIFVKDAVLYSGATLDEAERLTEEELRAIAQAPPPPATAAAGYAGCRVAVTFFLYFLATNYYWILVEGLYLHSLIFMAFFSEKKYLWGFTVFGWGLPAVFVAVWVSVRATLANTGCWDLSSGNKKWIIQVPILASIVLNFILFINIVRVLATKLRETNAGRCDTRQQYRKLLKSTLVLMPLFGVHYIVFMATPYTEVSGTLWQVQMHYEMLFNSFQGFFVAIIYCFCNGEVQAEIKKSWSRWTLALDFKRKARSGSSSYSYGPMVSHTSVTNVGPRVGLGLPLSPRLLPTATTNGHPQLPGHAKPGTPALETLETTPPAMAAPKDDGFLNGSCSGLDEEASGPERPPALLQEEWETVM
# Test: Competition binding to R0 conformation of hPTHR (COS-7 membranes, GTPγS, 125I-PTH(1-34) tracer)
# Conditions: Table 5; fold weaker affinity for R0 than RG
# Protocol: Membranes were prepared from COS-7 cells transfected with the hPTHR alone. GTPγS ([…]) was added to the binding reactions so as to functionally uncouple receptor-heterotrimeric G protein complexes, thus enriching for the R^0 (and R) conformations, relative to RG.
# Reactions contained a total membrane protein concentration of 20 to 100 μg/mL, and a total radioactivity concentration of approximately 150,000 cpm/ml. Unlabeled peptide ligands and/or GTPγS (Sigma-Aldrich Inc. St. Louis, Mo.) were added to the reactions as indicated.
# Membranes, tracer radioligand, and various concentrations of unlabeled ligands and/or GTPγS were incubated in the wells for 90 minutes, following which, the reaction plates were processed by rapid vacuum filtration to separate bound from free radioligand, as described above. […] For both radioligands, the non-specific binding was determined in reactions containing a saturating concentration of the unlabeled analog of the radioligand. The specifically bound radioactivity was calculated as a percent of the radioactivity specifically bound in the absence of a competing ligand or GTPγS.
# To assess the capacities of various unlabeled peptide ligands to bind to the G protein-uncoupled and G protein-coupled PTHR conformations (R^0 and RG, respectively), membranes were prepared from transiently transfected COS-7 cells and the following assay conditions.
row,Compound,R0:RG
1,"CC[C@H](C)[C@H](NC(=O)[C@H](CCC(=O)O)NC(=O)[C@H](CO)NC(=O)[C@@H](NC(=O)[C@H](C)N)C(C)C)C(=O)N[C@@H](CCC(N)=O)C(=O)N[C@@H](CC(C)C)C(=O)N[C@@H](CCSC)C(=O)N[C@@H](Cc1c[nH]cn1)C(=O)N[C@@H](CC(N)=O)C(=O)N[C@@H](CC(C)C)C(=O)NCC(=O)N[C@@H](CCCCN)C(=O)N[C@@H](Cc1c[nH]cn1)C(=O)N[C@@H](CC(C)C)C(=O)N[C@@H](C)C(=O)N[C@@H](CO)C(=O)N[C@H](C(=O)N[C@@H](CCC(=O)O)C(=O)N[C@@H](CCCNC(=N)N)C(=O)N[C@@H](CCSC)C(=O)N[C@@H](CCC(N)=O)C(=O)N[C@@H](Cc1c[nH]c2ccccc12)C(=O)N[C@@H](CC(C)C)C(=O)N[C@@H](CCCNC(=N)N)C(=O)N[C@@H](CCCCN)C(=O)N[C@@H](CCCCN)C(=O)N[C@@H](CC(C)C)C(=O)N[C@@H](CCC(N)=O)C(=O)N[C@@H](CC(=O)O)C(=O)N[C@H](C(=O)N[C@@H](Cc1c[nH]cn1)C(=O)N[C@@H](CC(N)=O)C(=O)N[C@@H](Cc1ccccc1)C(N)=O)C(C)C)C(C)C [rPTH(1-34)NH2, reference compound]",7
2,CSCC[C@H](NC(=O)[C@H](CC(C)C)NC(=O)[C@H](CCC(N)=O)NC(=O)[C@H](Cc1c[nH]cn1)NC(=O)[C@H](CCC(=O)O)NC(=O)[C@H](CO)NC(=O)[C@@H](NC(=O)[C@@H](N)CO)C(C)C)C(=O)N[C@@H](Cc1c[nH]cn1)C(=O)N[C@@H](CC(N)=O)C(=O)N[C@@H](CC(C)C)C(=O)NCC(=O)N[C@@H](CCCCN)C(=O)N[C@@H](Cc1c[nH]cn1)C(=O)N[C@@H](CC(C)C)C(=O)N[C@@H](CC(N)=O)C(=O)N[C@@H](CO)C(=O)N[C@@H](CCSC)C(=O)N[C@@H](CCC(=O)O)C(=O)N[C@@H](CCCNC(=N)N)C(=O)N[C@H](C(=O)N[C@@H](CCC(=O)O)C(=O)N[C@@H](Cc1c[nH]c2ccccc12)C(=O)N[C@@H](CC(C)C)C(=O)N[C@@H](CCCNC(=N)N)C(=O)N[C@@H](CCCCN)C(=O)N[C@@H](CCCCN)C(=O)N[C@@H](CC(C)C)C(=O)N[C@@H](CCC(N)=O)C(=O)N[C@@H](CC(=O)O)C(=O)N[C@H](C(=O)N[C@@H](Cc1c[nH]cn1)C(=O)N[C@@H](CC(N)=O)C(=O)N[C@@H](Cc1ccccc1)C(N)=O)C(C)C)C(C)C [[His^5]hPTH(1-34)NH2] (H-SVSEHQLMHNLGKHLNSMERVEWLRKKLQDVHNF-NH2; N-terminus assumed),160

# Test system: LLCPK1-B64 cells or SaOS-2 cells
# Test: cAMP screen of substituted PTHrP(1-28) analogs (% parent)
# Assay type: cell-based
# Conditions: parent PTHrP(1-28)NH
# Protocol: Alanine substitution at position 18, 22, 25 and 26 increased activity in at least one cell type. These positions were further substituted to various types of amino acids, and cAMP activity was analyzed in LLCPK1-B64 cells (FIG. 27C) or SaOS-2 cells (FIG. 27D). Cells were treated with analogs at 3×10^−9M in the presence of IBMX for 30 minutes at room temperature. Responses for each analog were normalized to the response for the parent (native) PTHrP(1-28) peptide. Alanine substitutions were A^15 to A^17 (SEQ ID NO:152-154), A^18 (SEQ ID NO:34), A^19 to A^21 (SEQ ID NO:155-157), A^22 (SEQ ID NO:39), A^23 to A^25 (SEQ ID NO:158-160), A^26 (SEQ ID NO:46), and A^27 to A^28 (SEQ ID NO:161-162). Substitutions at position 18 were A^18 (SEQ ID NO: 34), G^18 (SEQ ID NO:163), S^18 (SEQ ID NO:35), M^18 (SEQ ID NO:36), L^18 (SEQ ID NO:164), F^18 (SEQ ID NO:37), N^18 (SEQ ID NO:165), E^18 (SEQ ID NO:38), and K^18 (SEQ ID NO:166). Substitutions at position 22 were A^22 (SEQ ID NO:39), G^22 (SEQ ID NO:167), and S^22 to K^22 (SEQ ID NO:40-45). Substitutions at position 26 were A^26 (SEQ ID NO:46), G^26 (SEQ ID NO:168), S^26 (SEQ ID NO:47), L^26 (SEQ ID NO:169), N^26 (SEQ ID NO:48), W^26 to E^26 (SEQ ID NO:170-171), and K^26 to R^26 (SEQ ID NO:49-50). Substitutions at position 25 were G^25 to S^25 (SEQ ID NO:172-173), L^25 (SEQ ID NO:51), N^25 (SEQ ID NO:174), W^25 (SEQ ID NO:52), E^25 (SEQ ID NO:175), and K^25 to R^25 (SEQ ID NO:53-54). […]
row,Compound,screen cAMP (% parent)
1,L22-PTHrP(1-28) (AVSEHQLLHDKGKSIQDLRRRLFLHHLI-NH2) [L22-PTHrP(1-28)NH],142
2,E22-PTHrP(1-28) (AVSEHQLLHDKGKSIQDLRRREFLHHLI-NH2) [E22-PTHrP(1-28)NH],121
3,W22-PTHrP(1-28) (AVSEHQLLHDKGKSIQDLRRRWFLHHLI-NH2) [W22-PTHrP(1-28)NH],129
4,K26-PTHrP(1-28) (AVSEHQLLHDKGKSIQDLRRRFFLHKLI-NH2) [K26-PTHrP(1-28)NH],142
5,"A18,22,W25,K26-PTHrP(1-28) (AVSEHQLLHDKGKSIQDARRRAFLWKLI-NH2) [A18, 22, W25, K26-PTHrP(1-28)NH]",329
6,F18-PTHrP(1-28) (AVSEHQLLHDKGKSIQDFRRRFFLHHLI-NH2) [F18-PTHrP(1-28)NH],109
7,N22-PTHrP(1-28) (AVSEHQLLHDKGKSIQDLRRRNFLHHLI-NH2) [N22-PTHrP(1-28)NH],138
8,S18-PTHrP(1-28) (AVSEHQLLHDKGKSIQDSRRRFFLHHLI-NH2) [S18-PTHrP(1-28)NH],121
9,"E18,S22,K25,26-PTHrP(1-28) (AVSEHQLLHDKGKSIQDERRRSFLKKLI-NH2) [E18, S22, K25, 26-PTHrP(1-28)NH]",335
10,R25-PTHrP(1-28) (AVSEHQLLHDKGKSIQDLRRRFFLRHLI-NH2) [R25-PTHrP(1-28)NH],204
11,S26-PTHrP(1-28) (AVSEHQLLHDKGKSIQDLRRRFFLHSLI-NH2) [S26-PTHrP(1-28)NH],107
12,"A18,22,I25,K26-PTHrP(1-28) (AVSEHQLLHDKGKSIQDARRRAFLIKLI-NH2) [A18, 22, I25, K26-PTHrP(1-28)NH]",342
13,A22-PTHrP(1-28) (AVSEHQLLHDKGKSIQDLRRRAFLHHLI-NH2) [A22-PTHrP(1-28)NH],185
14,M18-PTHrP(1-28) (AVSEHQLLHDKGKSIQDMRRRFFLHHLI-NH2) [M18-PTHrP(1-28)NH],113
15,A26-PTHrP(1-28) (AVSEHQLLHDKGKSIQDLRRRFFLHALI-NH2) [A26-PTHrP(1-28)NH],142
16,S22-PTHrP(1-28) (AVSEHQLLHDKGKSIQDLRRRSFLHHLI-NH2) [S22-PTHrP(1-28)NH],141
17,A18-PTHrP(1-28) (AVSEHQLLHDKGKSIQDARRRFFLHHLI-NH2) [A18-PTHrP(1-28)NH],164
18,W25-PTHrP(1-28) (AVSEHQLLHDKGKSIQDLRRRFFLWHLI-NH2) [W25-PTHrP(1-28)NH],270
19,E18-PTHrP(1-28) (AVSEHQLLHDKGKSIQDERRRFFLHHLI-NH2) [E18-PTHrP(1-28)NH],140
20,R26-PTHrP(1-28) (AVSEHQLLHDKGKSIQDLRRRFFLHRLI-NH2) [R26-PTHrP(1-28)NH],143
21,"A18,22,F25,K26-PTHrP(1-28) (AVSEHQLLHDKGKSIQDARRRAFLFKLI-NH2) [A18, 22, F25, K26-PTHrP(1-28)NH]",337
22,K22-PTHrP(1-28) (AVSEHQLLHDKGKSIQDLRRRKFLHHLI-NH2) [K22-PTHrP(1-28)NH],150
23,K25-PTHrP(1-28) (AVSEHQLLHDKGKSIQDLRRRFFLKHLI-NH2) [K25-PTHrP(1-28)NH],163
24,L25-PTHrP(1-28) (AVSEHQLLHDKGKSIQDLRRRFFLLHLI-NH2) [L25-PTHrP(1-28)NH],325
25,N26-PTHrP(1-28) (AVSEHQLLHDKGKSIQDLRRRFFLHNLI-NH2) [N26-PTHrP(1-28)NH],113
26,"E18,A22,26-PTHrP(1-28) (AVSEHQLLHDKGKSIQDERRRAFLHALI-NH2) [E18, A22, 26-PTHrP(1-28)NH]",190
